Laboratory results published in PMC6105804, “In Vitro and In Vivo Evaluation of APX001A/APX001 and Other Gwt1 Inhibitors against Cryptococcus” (Antimicrobial Agents and Chemotherapy, 2018).
Where “and” joins values, the source holds several entries; their conditions need not be identical. Equal entries are not always repeated.

Columns and labels:
C. albicans = system: C. albicans; set-up: method as in ref 23 = [23]; 23. Zhao Y , Lee M , Lee A , Paderu P , Park S , Perlin DS 2018 APX001 is effective against echinocandin and multi-drug resistant Candida isolates . Abstr 28th ECCMID , Madrid, Spain .; settings: after ABT administration, after 48 h; cited from earlier work
[1] = Acute toxicity and survival observed in the CM model with ABT; format: in vivo, mouse; settings: n = 5 mice/cohort; 7 days i.p. + ABT
Protocol: (§1) ABT at 100 mg/kg was administered orally to male CD-1 mice at 2 h prior to each APX compound dose. Mice were injected with 6.9 × 10^4 CFU of C. neoformans strain H99 per mouse via the lateral tail vein at time zero. Treatment with the APX compound was initiated at about 1 h postinfection by i.p. administration and continued for 7 days, with 100-mg/kg ABT being administered orally 2 h prior to each APX compound dose. […] Fungal burden data were log10 transformed and evaluated using Kruskal-Wallis tests with Dunn's multiple-comparison test for post hoc analysis (Prism software, v5; GraphPad Software, Inc., San Diego, CA). A P value of ≤0.05 was considered statistically significant (*, P ≤ 0.05; **, P ≤ 0.01). The 95% confidence interval (CI) is presented.
(§2) C. neoformans strain H99 was grown in yeast extract-peptone-dextrose broth at 30°C on a shaker (220 rpm) for 24 h, centrifuged (1,980 relative centrifugal force), and washed twice in phosphate-buffered saline (PBS), resuspended in PBS, and quantified by hemacytometric count. Male CD-1 mice were infected with ∼5 × 10^4 CFU per mouse via lateral tail vein injection of 100 μl. Mice were weighed, and treatment was begun within 1 h after infection. Treatments were administered daily for 7 days. Mice were weighed daily and observed for acute and chronic adverse symptoms. Mice were sacrificed on day 8, and the brain and left lung were homogenized and cultured for quantitative determination of the tissue burden (number of CFU per gram of tissue). Tissues were homogenized for 25 s in 1 ml phosphate-buffered saline using two 6.5-mm steel beads and a Mini-Beadbeater 16 apparatus (Biospec Products, Inc., Bartlesville, OK) and serially diluted in 10-fold steps. Aliquots (100 μl) of homogenate were plated and incubated for 3 to 7 days at 37°C. Fungal burden data were log10 transformed and evaluated using Kruskal-Wallis tests with Dunn's multiple-comparison test for post hoc analysis (Prism software, v5; GraphPad Software, Inc., San Diego, CA). A P value of ≤0.05 was considered statistically significant.

[2] = Description: For pharmacokinetic and efficacy studies, the prodrugs APX001, APX2096, APX2097, and APX2104 (Amplyx Pharmaceuticals) were used. […] The prodrugs APX2096, APX2097, and APX2104 were formulated similarly to enable oral and i.p. dosing of compounds for pharmacokinetic and efficacy studies.
[3] = set-up: method as in ref 11, 12 = [11]; 11. Hodges MR , Ople E , Shaw KJ , Mansbach RS , van Marle S , van Hoogdalem E , Kramer W , Wedel P 2017 Phase 1 study to assess safety, tolerability and pharmacokinetics of single and multiple oral d || [12]; 12. Hodges MR , Ople E , Shaw KJ , Mansbach RS , van Marle S , van Hoogdalem E , Wedel P , Kramer W 2017 First-in-human study to assess safety, tolerability and pharmacokinetics of APX001 administered; settings: cited from earlier work
C. neoformans strain H99 [4] = test: Murine cryptococcal meningitis model with ABT pretreatment (preliminary experiment); format: in vivo, Cryptococcus neoformans
Protocol: In a preliminary experiment, the efficacies of APX001, APX2096, and APX2097 were evaluated in the disseminated model of CM (n = 5 mice/cohort). ABT at 100 mg/kg was administered orally to male CD-1 mice 2 h prior to APX compound administration. Mice were injected with 6.9 × 10^4 CFU of C. neoformans strain H99 per mouse via the lateral tail vein at time zero. Treatment with each prodrug was initiated at about 1 h postinfection by i.p. administration and continued daily for 7 days, with 100-mg/kg ABT being administered orally 2 h prior to each APX compound dose.
as §1, §2

C. neoformans strain H99 [5] = test: Murine model of cryptococcal meningitis, APX001 alone and with FLC (no ABT); format: in vivo, Cryptococcus neoformans
Protocol: The efficacies of APX001 and FLC were evaluated in a well-established mouse CM model ([34]). Since Cryptococcus infections can be hematogenously disseminated to other organs, the numbers of CFU in both lung and brain tissue were evaluated. Male CD-1 mice were infected with 5.9 × 10^4 CFU of C. neoformans strain H99 via lateral tail vein injection. Mice were assigned to four groups (n = 10), consisting of (i) treatment with APX001, (ii) treatment with APX001 plus FLC, (iii) treatment with FLC, or (iv) no treatment as a control. Treatment was initiated within 1 h after infection. APX001 was administered by oral gavage at a dose of 390 mg/kg thrice daily (TID), with each dose being administered roughly 8 h apart. […] FLC (2 mg/ml; Sagent Pharmaceuticals, Schaumburg, IL) was administered at a dose of 80 mg/kg/day intraperitoneally (i.p.).
Brain and lung burdens in mice were measured at 7 days postinfection with C. neoformans H99. Male CD-1 mice were infected with 5.9 × 10^4 CFU of C. neoformans strain H99 via the lateral tail vein. Treatment was initiated at about 1 h postinfection and continued for 7 days. APX001 was administered by oral gavage at a dose of 390 mg/kg thrice daily, with each dose being administered roughly 8 h apart. FLC (2 mg/ml; Sagent Pharmaceuticals, Schaumburg, IL) was administered at a dose of 80 mg/kg/day i.p. once daily. Fungal burden data were log10 transformed and evaluated using Kruskal-Wallis tests with Dunn's multiple-comparison test for post hoc analysis (Prism software, v5; GraphPad Software, Inc., San Diego, CA). A P value of ≤0.05 was considered statistically significant (*, P ≤ 0.05; **, P ≤ 0.01; ***, P ≤ 0.001). The 95% confidence interval (CI) is presented.
as §2

[6] = 80 mg/kg in the presence of ABT
[7] = 85 mg/kg QD i.p. + ABT 100 mg/kg p.o., 7 days
[8] = APX001 390 mg/kg TID oral plus FLC 80 mg/kg/day i.p., 7 days
[9] = monotherapy 7 days, APX001 390 mg/kg TID oral gavage, FLC 80 mg/kg/day i.p., male CD-1 mice

Nc1c(-c2cc(Cc3ccc(COc4ccccn4)cc3)no2)ccc[n+]1COP(=O)([O-])O [APX001]
reduction of C. albicans kidney burdens (C. albicans): 6.0 ± 0.1 log10 CFU/g kidney tissue
final numbers of surviving mice [1]: 5
solubility in water [2]: soluble in water
bioavailability ([3]; phase 1 clinical trials): > 90%
half-life in humans ([3]; phase 1 studies in healthy volunteers): 60 h
reduction in lung fungal burden (C. neoformans strain H99 [4]; 34 mg/kg QD i.p. + ABT 100 mg/kg p.o., 7 days): neither the 34-mg/kg nor the 85-mg/kg dose of APX001 achieved a statistically significant reduction
reduction in brain fungal burden (C. neoformans strain H99 [4]; [6]): 0.85 log10 CFU/g
reduction in lung fungal burden (C. neoformans strain H99 [4]; [6]): 0.9 log10 CFU/g
reduction in brain fungal burden (C. neoformans strain H99 [4]; [7]): 0.85 log10 CFU/g
reduction in lung fungal burden (C. neoformans strain H99 [4]; [7]): neither the 34-mg/kg nor the 85-mg/kg dose of APX001 achieved a statistically significant reduction
reduction in brain fungal burden vs untreated control, combination of APX001 and FLC (C. neoformans strain H99 [5]; [8]): 3.52 log10 CFU/g and 3.51 log10 CFU/g
reduction in lung fungal burden vs untreated control, combined therapy (C. neoformans strain H99 [5]; [8]): 1.84 log10 CFU/g
reduction in brain fungal burden vs untreated control (C. neoformans strain H99 [5]; [9]): 0.78 log10 CFU/g
reduction in lung fungal burden vs untreated control (C. neoformans strain H99 [5]; [9]): 1.50 log10 CFU/g and 1.5 log10 CFU/g
